Data taken from ChEMBL document CHEMBL1134131, “Discovery of 2,3-diaryl-1,3-thiazolidin-4-ones as potent anti-HIV-1 agents” (Bioorg Med Chem Lett, 2001).

Assays:
MT4 [1] = experiment: Cytotoxicity to reduce MT-4 cell viability by 50%; assay type: functional; settings: Homo sapiens
MT4 [2] = experiment: Anti-HIV activity to reduce […] cytopathic effect by 50% in MT-4 cells against HIV-1 IIIB; assay type: functional, cell-based; settings: Homo sapiens
MT4 [3] = experiment: Anti-HIV activity to reduce HIV-2-induced cytopathic effect by 50% in MT-4 cells against HIV-2 ROD; assay type: functional, cell-based; settings: Homo sapiens
MT4 [4] = experiment: Concentration required to reduce HIV-1-induced cytopathic effect by 50% in MT-4 cells against HIV-1 IIIB; assay type: functional, cell-based; settings: Homo sapiens
MT4 [5] = experiment: Concentration required to reduce HIV-1-induced cytopathic effect by 50% in MT-4 cells against HIV-2 ROD; assay type: functional, cell-based; settings: Homo sapiens
MT4 [6] = experiment: Evaluated for cytotoxicity and the concentration required to reduce MT-4 cell viability by 50% was reported; assay type: functional; settings: Homo sapiens
MT4 [7] = experiment: Evaluated for the inhibition of replication of HIV-1 IIIB or HIV-2 (ROD) in MT-4 cells by using [3H]-dGTP as the radiolabeled substrate; assay type: functional, cell-based; settings: Homo sapiens
MT4 [8] = experiment: Evaluated for the inhibition of replication of HIV-1 IIIB or HIV-2 (ROD) in MT-4 cells by using [3H]dGTP radiolabeled substrate; assay type: functional, cell-based; settings: Homo sapiens
[9] = Selectivity index ([…] ratio)of the compound; assay type: functional
MT4 [10] = experiment: Anti-HIV activity to reduce […] cytopathic effect by 50% in MT-4 cells against HIV-1 IIIB; NA= not active; assay type: functional, cell-based, Homo sapiens
MT4 [11] = experiment: Compound was evaluated for the inhibition of replication of HIV-1 IIIB or HIV-2 (ROD) in MT-4 cells by using [3H]dGTP radiolabeled substrate; assay type: functional, cell-based; settings: Homo sapiens
MT4 [12] = experiment: Anti-HIV activity to reduce […] cytopathic effect by 50% in MT-4 cells against HIV-1 IIIB; NA=not active; assay type: functional, cell-based, Homo sapiens

| SMILES | CC50 (MT4 [1]) [µM] | EC50 (MT4 [2]) [µM] | EC50 (MT4 [3]) [µM] | also measured |
| --- | --- | --- | --- | --- |
| O=C1CSC(c2c(F)cccc2F)N1c1ccccn1 (stereo not drawn) | > 427 | 0.855 | > 427 |  |
| O=C1CSC(c2c(Cl)cccc2Cl)N1c1ccccn1 (stereo not drawn) | 38.5 | 0.178 | > 38.5 |  |
| Cc1cccnc1N1C(=O)CSC1c1c(F)cccc1F (stereo not drawn) | > 319 | 53.5 | > 270 |  |
| O=C1CSC(c2c(Cl)cccc2Cl)N1c1ccccc1 (stereo not drawn) | 38.1 | 0.401 | > 39 |  |
| O=C1CSC(c2c(F)cccc2F)N1c1cccnc1 (stereo not drawn) | > 427 | 95.1 | > 427 |  |
| O=C1CSC(c2c(F)cccc2F)N1c1ccccc1 (stereo not drawn) |  |  |  | EC50 (MT4 [4]): 2.3 µM; EC50 (MT4 [5]): > 429 µM; CC50 (MT4 [6]): > 429 µM |
| Fc1cccc(F)c1C1SCc2nc3ccccc3n21 (stereo not drawn) [THIAZOLOBENZIMIDAZOLE] | 19.2 | 0.352 |  | IC50 (MT4 [7]): 14.6 µM |
| Cc1ccnc(N2C(=O)CSC2c2c(Cl)cccc2Cl)c1 (stereo not drawn) | > 368 | 0.147 | > 368 |  |
| Cc1ccnc(N2C(=O)CSC2c2c(F)cccc2F)c1 (stereo not drawn) | 242 | 0.248 | > 242 | IC50 (MT4 [8]): 2.84 µM; Ratio [9]: 976 |
| Cc1ccc(N2C(=O)CSC2c2c(F)cccc2F)nc1 (stereo not drawn) | 202 | 5.13 | > 171 |  |
| O=C1CSC(c2c(Cl)cccc2Cl)N1c1cccnc1 (stereo not drawn) | 23.4 | > 23 |  | EC50 (MT4 [10]): Not Active |
| Clc1cccc(Cl)c1C1SCc2nc3ccccc3n21 (stereo not drawn) | 9.43 | 0.589 |  |  |
| Cc1cccc(N2C(=O)CSC2c2c(F)cccc2F)n1 (stereo not drawn) | 126 | 0.082 | > 126 | IC50 (MT4 [11]): 2.9 µM |
| Cc1cccnc1N1C(=O)CSC1c1c(Cl)cccc1Cl (stereo not drawn) | 42.6 |  | > 31.5 | EC50 (MT4 [12]): Not Active |
| Cc1cccc(N2C(=O)CSC2c2c(Cl)cccc2Cl)n1 (stereo not drawn) | 285 | 0.044 | 285 | IC50 (MT4 [8]): 2.24 µM |
